Results on 30 molecules are retold here after patent US8476261B2, “Spirocyclic aminoquinolones as GSK-3 inhibitors” (Kyorin Pharmaceutical Co., Ltd., priority 2007, dated 2013).

Each structure is given as a SMILES string. pIC50: −log10 of the molar value. Bounds are passed on as bounds.

T1 sequence (P49841 whole entry): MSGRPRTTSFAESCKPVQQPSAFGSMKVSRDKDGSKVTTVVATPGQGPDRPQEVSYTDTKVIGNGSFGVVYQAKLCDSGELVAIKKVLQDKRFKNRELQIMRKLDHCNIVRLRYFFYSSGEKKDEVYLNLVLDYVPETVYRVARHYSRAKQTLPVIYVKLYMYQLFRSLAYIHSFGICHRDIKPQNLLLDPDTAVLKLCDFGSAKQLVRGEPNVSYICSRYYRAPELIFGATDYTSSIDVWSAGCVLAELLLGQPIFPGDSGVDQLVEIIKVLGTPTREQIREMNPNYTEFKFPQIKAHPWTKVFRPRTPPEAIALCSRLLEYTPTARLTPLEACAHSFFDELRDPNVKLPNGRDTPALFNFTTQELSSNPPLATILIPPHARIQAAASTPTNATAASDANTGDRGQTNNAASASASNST

The experiment has as its target T1, recombinant full-length human GSK3β (Homo sapiens, UniProt P49841).
T1 construct: recombinant full-length human GSK3β (Upstate); purchased Upstate
Nature of the experiment: cell-free GSK3 kinase assay (KinaseGlo luciferase). The experiment is classed as biochemical. To be noted: Table 1; 5 μM ATP, 1 hour at 30 degrees Celsius. On the procedure: Proceed to KinaseGlo luciferase reaction.
Following the completion of the kinase reaction an equal volume of KinaseGlo luciferase reagent (Promega) is added and the luminescence read using a luminescence plate reader within 5-10 minutes.
In general terms: In Kinase-Glo more light means more ATP remaining.
In the case of `CC(C)c1ccc(OCCNc2c(F)c(N)c3c(=O)c(C(=O)O)cn4c3c2OCC42CCCC2)cc1` [Compound 67], the pIC50 was less than 6.82.
On to `Nc1c(F)c(NCCNC(=O)c2ccccn2)c2c3c1c(=O)c(C(=O)O)cn3C1(CCCC1)CO2` [Compound 68], for which the pIC50 is 7.22 to 7.80.
Regarding `COc1cccc(CCCNc2c(F)c(N)c3c(=O)c(C(=O)O)cn4c3c2OCC42CCCC2)c1` [Compound 69], the negative-log IC50 (pIC50) is greater than 7.82.
To `Nc1c(F)c(NCCCn2cnc3ccccc32)c2c3c1c(=O)c(C(=O)O)cn3C1(CCCC1)CO2` [Compound 70] belongs greater than 7.82; to `Nc1c(F)c(NCCN2CCC(c3ccccc3)C2)c2c3c1c(=O)c(C(=O)O)cn3C1(CCCC1)CO2` (stereo not drawn) [Compound 71], less than 6.82.
`Nc1c(F)c(NCCC(c2ccccc2)c2ccc3c(c2)OCO3)c2c3c1c(=O)c(C(=O)O)cn3C1(CCCC1)CO2` (stereo not drawn) [Compound 72]: the negative logarithm of the IC50 (pIC50) is less than 6.82.
Take `CC(COc1ccc(Cl)cc1)Nc1c(F)c(N)c2c(=O)c(C(=O)O)cn3c2c1OCC31CCCC1` (stereo not drawn) [Compound 74]: the pIC50 was less than 6.82.
Regarding `Nc1c(F)c(NCCOc2ccc(-c3ccccc3)cc2)c2c3c1c(=O)c(C(=O)O)cn3C1(CCCC1)CO2` [Compound 75], the pIC50 was less than 6.82.
For the molecule `Nc1c(F)c(NCCSc2nc3ccccc3[nH]2)c2c3c1c(=O)c(C(=O)O)cn3C1(CCCC1)CO2` [Compound 76], the negative-log IC50 (pIC50) is less than 6.82.
For the molecule `Nc1c(F)c(N[C@H]2CC[C@H](n3ccnc3)C2)c2c3c1c(=O)c(C(=O)O)cn3C1(CCCC1)CO2` [Compound 77], the pIC50 is greater than 7.82.
Under `Nc1c(F)c(N[C@H]2CC[C@H](c3ccccn3)C2)c2c3c1c(=O)c(C(=O)O)cn3C1(CCCC1)CO2` [Compound 78] stands greater than 7.82.
Take `Nc1c(F)c(N[C@@H]2CC[C@H](c3ccccn3)C2)c2c3c1c(=O)c(C(=O)O)cn3C1(CCCC1)CO2` [Compound 79]: the negative logarithm of the IC50 (pIC50) is less than 6.82.
To `Nc1c(F)c(NCCCc2ccncc2)c2c3c1c(=O)c(C(=O)O)cn3C1(CCCC1)CO2` [Compound 80] belongs greater than 7.82.
With `N#Cc1ccc(CCCNc2c(F)c(N)c3c(=O)c(C(=O)O)cn4c3c2OCC42CCCC2)nc1` [Compound 81], the pIC50 is greater than 7.82.
Turning to `Nc1c(F)c(NCCNc2ccccn2)c2c3c1c(=O)ccn3C1(CCC1)CCO2` [Compound 82], the pIC50 was 7.22 to 7.80.
To `Nc1c(F)c(NCCCc2ccccn2)c2c3c1c(=O)ccn3C1(CCC1)CCO2` [Compound 83] belongs 6.82 to 7.21.
On to `Nc1c(F)c(NCCCn2ccnc2)c2c3c1c(=O)ccn3C1(CCC1)CCO2` [Compound 84], for which the negative logarithm of the IC50 (pIC50) is greater than 7.82.
With `Nc1c(F)c(NCCCc2ccccn2)c2c3c1c(=O)ccn3C1(CCCC1)CO2` [Compound 85], the pIC50 was 7.22 to 7.80.
With `NC(=O)c1cn2c3c(c(NCCNc4ccccn4)c(F)c(N)c3c1=O)OCCC21CCC1` [Compound 86], the negative logarithm of the IC50 (pIC50) was greater than 7.82.
As to `NNC(=O)c1cn2c3c(c(NCCNc4ccccn4)c(F)c(N)c3c1=O)OCCC21CCC1` [Compound 88], the pIC50 was greater than 7.82.
Take `Nc1c(F)c(NCCNc2ccccn2)c2c3c1c(=O)c(C(=O)NO)cn3C1(CCC1)CCO2` [Compound 89]: the pIC50 is greater than 7.82.
Turning to `CNC(=O)c1cn2c3c(c(NCCNc4ccccn4)c(F)c(N)c3c1=O)OCCC21CCC1` [Compound 90], the pIC50 is less than 6.82.
To `N#Cc1cn2c3c(c(NCCNc4ccccn4)c(F)c(N)c3c1=O)OCCC21CCC1` [Compound 91] belongs 7.22 to 7.80; to `N#Cc1cn2c3c(c(NCCCn4ccnc4)c(F)c(N)c3c1=O)OCCC21CCC1` [Compound 93], 7.22 to 7.80.
As for `Cc1c(C(=O)O)c(=O)c2c(N)c(F)c(NCCNc3ccccn3)c3c2n1C1(CCC1)CCO3` [Compound 94], the pIC50 is 7.22 to 7.80.
Regarding `Nc1c(Cl)c(NCCNc2ccccn2)c2c3c1c(=O)c(C(=O)O)cn3C1(CCC1)CCO2` [Compound 95], the negative logarithm of the IC50 (pIC50) was 6.82 to 7.21.
Under `Nc1c(F)c(NCCCn2ccnc2)c2c3c1c(=O)c(C(=O)O)cn3C1(CCCC1)CO2` [Compound 96] stands greater than 7.82; under `Nc1c(F)c(NCCCn2ccnc2)c2c3c1c(=O)c(C(=O)O)cn3C1(CCC1)CCO2` [Compound 97], 7.22 to 7.80.
Consider `Nc1c(F)c(N2CCC(Nc3ccccn3)C2)c2c3c1c(=O)c(C(=O)O)cn3C1(CCCC1)CO2` (stereo not drawn) [Compound 98], for which the negative-log IC50 (pIC50) was less than 6.82.
To `Cc1cc(=O)c2c(N)c(F)c(NCCNc3ccccn3)c3c2n1C1(CCC1)CCO3` [Compound 99] belongs less than 6.82.

A word on the pIC50: it is the IC50 on a negative log10 scale, so that one unit is a factor of ten.
